Data as given in patent publication US20150005288A1, “SUBSTITUTED PHENYLIMIDAZOPYRAZOLES AND USE THEREOF” (Bayer Intellectual Property GmbH, priority 2012, published 2015).

Target: T1, intracellular domain of human Tie2 (GST fusion protein) (Homo sapiens, UniProt Q02763)
T1 construct: intracellular domain of human Tie2 (amino acids 776-1124); made in house; host or cells: Baculovirus-infected insect cells (Hi5)
Assay: Tie2 kinase assay (Tie2-TR-FRET)
Format: biochemical
Conditions: ATP concentration 1 mM, in some cases means of several independent determinations
Procedure: The Tie2-inhibitory activity of the substances according to the invention was determined with the aid of one of the Tie2-TR-FRET assays described in the sections below at an ATP concentration of 1 mM (TR-FRET=Time-Resolved Fluorescence Resonance Energy Transfer):
The enzyme used was a recombinant fusion protein of glutathione S-transferase (GST) and the intracellular domain of human Tie2 (amino acids 776-1124) which was expressed in Baculovirus-infected insect cells (Hi5) and was purified by affinity chromatography on glutathione-Sepharose. Alternatively, it is also possible to use commercially available GST-His6-Tie2 fusion protein (ProQinase GmbH, Freiburg im Breisgau, Germany). The substrate used for the kinase reaction was the biotinylated peptide biotin-Ahx-[…] (C-terminus in amide form) which is commercially available (for example from Biosyntan, Berlin, Germany).
For the assay, 50 nl of a 100-fold concentrated solution of the respective test substance in DMSO were pipetted into a black low-volume 384-well microtitre plate (Greiner Bio-One, Frickenhausen, Germany) 2 μl of a solution of the Tie2 fusion protein in assay buffer [50 mM HEPES/HCl pH 7, 10 mM MgCl2, 2.5 mM MnCl2, 1 mM dithiothreitol, 0.01% (v/v) Nonidet P-40, 0.1% (w/v) bovine serum albumin (BSA), 1× Complete EDTA-free protease inhibitor mixture (Roche)] were added, and the mixture was incubated for 15 min to allow pre-binding of the substance to the enzyme prior to the kinase reaction. The kinase reaction was then started by adding 3 μl of a solution of adenosine triphosphate (ATP, 1.67 mM→final concentration in 5 μl assay volume=1 mM) and substrate (1.67 μM→final concentration in 5 μl assay volume=1 μM) in assay buffer, and the resulting mixture was incubated for a reaction time of 60 min at 22° C. The concentration of the Tie2 fusion protein was adapted to the respective activity of the enzyme and adjusted such that the assay was carried out in the linear range. Typical concentrations were in the range of 30 ng/ml.
The reaction was stopped by addition of 5 μl of a solution of TR-FRET detection reagents [200 nM streptavidin-XL665 and 2 nM PT66-Eu chelate, a europium chelate-labelled anti-phosphotyrosine antibody (Perkin-Elmer); alternatively, it is also possible to use PT66-Tb cryptate (Cisbio Bioassays, Codolet, France)] in aqueous EDTA solution[90 mM EDTA, 0.28% (w/v) bovine serum albumin (BSA) in 50 mM HEPES pH 7.5]. The resulting mixture was incubated at 22° C. for 1 h to allow formation of the complex of the biotinylated phosphorylated substrate and the detection reagents. The amount of phosphorylated substrate was then determined by measuring the resonance energy transfer from PT66-Eu chelate to streptavidin-XL665. To this end, the fluorescence emissions at 620 nm and 665 nm after excitation at 350 nm were measured in a TR-FRET measuring instrument (for example Viewlux, Perkin-Elmer). The ratio of the emissions at 665 nm and at 620 nm was taken as a measure of the amount of phosphorylated substrate.
Usually, the test substance in question was tested on the same microtitre plate at […] different concentrations in the range from 20 μM to 0.073 nM (for example at 20 μM, 5.7 μM, 1.6 μM, 0.47 μM, 0.13 μM, 38 nM, 11 nM, 3.1 nM, 0.89 nM, 0.25 nM and 0.073 nM) in duplicate for each concentration. The dilution series were prepared prior to the assay at the stage of the 100-fold concentrated solution by serial dilution (the exact concentrations may vary depending on the pipettors used in each case). IC50 values were calculated using a 4-parameter fit, with the aid of inhouse software.
Table 1 below lists the IC50 values from this assay for individual working examples (in some cases as means of several independent individual determinations): […]

T1 sequence (Q02763 776-1124): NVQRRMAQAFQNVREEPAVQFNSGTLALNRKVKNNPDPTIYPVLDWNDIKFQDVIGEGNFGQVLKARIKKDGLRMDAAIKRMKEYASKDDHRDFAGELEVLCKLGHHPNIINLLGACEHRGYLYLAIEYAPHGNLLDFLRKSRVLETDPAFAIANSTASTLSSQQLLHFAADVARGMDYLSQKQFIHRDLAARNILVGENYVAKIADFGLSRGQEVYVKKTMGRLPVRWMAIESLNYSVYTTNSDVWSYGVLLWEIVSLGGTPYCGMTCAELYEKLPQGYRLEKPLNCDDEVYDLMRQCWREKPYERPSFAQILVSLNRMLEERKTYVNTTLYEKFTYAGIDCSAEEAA

Structure (SMILES)	IC50 [nM]
Cc1ccc(NC(=O)c2ccc(F)c(C(F)(F)F)c2)cc1-n1ccn2nc(-c3cccnc3)cc12 [Example 45, 4-Fluoro-N-{4-methyl-3-[6-(pyridin-3-yl)-1H-imidazo[1,2-b]pyrazol-1-yl]phenyl}-3-(trifluoromethyl)benzamide]	740
Cc1ccc(NC(=O)c2cccc(C(F)(F)F)c2F)cc1-n1ccn2nc(-c3cccnc3)cc12 [Example 46, 2-Fluoro-N-{4-methyl-3-[6-(pyridin-3-yl)-1H-imidazo[1,2-b]pyrazol-1-yl]phenyl}-3-(trifluoromethyl)benzamide]	980
Cc1ccc(NC(=O)c2cc(-n3ccnc3C)cc(C(C)(C)C)c2)cc1-n1ccn2nc(-c3cccnc3)cc12 [Example 47, 3-tert-Butyl-5-(2-methyl-1H-imidazol-1-yl)-N-{4-methyl-3-[6-(pyridin-3-yl)-1H-imidazo[1,2-b]-pyrazol-1-yl]phenyl}benzamide]	0.3
Cc1ccc(NC(=O)c2cc(C(C)(C)C)cc(C(C)(C)O)c2)cc1-n1ccn2nc(-c3cccnc3)cc12 [Example 49, 3-tert-Butyl-5-(2-hydroxypropan-2-yl)-N-{4-methyl-3-[6-(pyridin-3-yl)-1H-imidazo[1,2-b]-pyrazol-1-yl]phenyl}benzamide]	0.3
Cc1ccc(NC(=O)c2cc(C#N)cc(C(C)(C)C)c2)cc1-n1ccn2nc(-c3cccnc3)cc12 [Example 50, 3-tert-Butyl-5-cyano-N-{4-methyl-3-[6-(pyridin-3-yl)-1H-imidazo[1,2-b]pyrazol-1-yl]phenyl}-benzamide]	1.2
Cc1cc(C)cc(C(=O)Nc2ccc(C)c(-n3ccn4nc(-c5cccnc5)cc34)c2)c1 [Example 52, 3,5-Dimethyl-N-{4-methyl-3-[6-(pyridin-3-yl)-1H-imidazo[1,2-b]pyrazol-1-yl]phenyl}benzamide]	230
Cc1ccc(NC(=O)c2cc(C(C)C)ccc2O)cc1-n1ccn2nc(-c3cccnc3)cc12 [Example 53, 2-Hydroxy-N-{4-methyl-3-[6-(pyridin-3-yl)-1H-imidazo[1,2-b]pyrazol-1-yl]phenyl}-5-(propan-2-yl)benzamide]	340
Cc1ccc(NC(=O)c2cccc(-c3cccc(C#N)c3)c2)cc1-n1ccn2nc(-c3cccnc3)cc12 [Example 54, 3′-Cyano-N-{4-methyl-3-[6-(pyridin-3-yl)-1H-imidazo[1,2-b]pyrazol-1-yl]phenyl}biphenyl-3-carboxamide]	670
Cc1ccc(NC(=O)c2cccc(-n3cccn3)c2)cc1-n1ccn2nc(-c3cccnc3)cc12 [Example 55, N-{4-Methyl-3-[6-(pyridin-3-yl)-1H-imidazo[1,2-b]pyrazol-1-yl]phenyl}-3-(1H-pyrazol-1-yl)-benzamide]	275
Cc1ccc(NC(=O)c2cccc(N3CCCC3)c2)cc1-n1ccn2nc(-c3cccnc3)cc12 [Example 56, N-{4-Methyl-3-[6-(pyridin-3-yl)-1H-imidazo[1,2-b]pyrazol-1-yl]phenyl}-3-(pyrrolidin-1-yl)-benzamide]	52
Cc1ccc(NC(=O)c2cc(N3CCCC3)ccc2Cl)cc1-n1ccn2nc(-c3cccnc3)cc12 [Example 57, 2-Chloro-N-{4-methyl-3-[6-(pyridin-3-yl)-1H-imidazo[1,2-b]pyrazol-1-yl]phenyl}-5-(pyrrolidin-1-yl)benzamide]	995
Cc1ccc(NC(=O)c2ccc(Cl)c(N3CCCCC3)c2)cc1-n1ccn2nc(-c3cccnc3)cc12 [Example 58, 4-Chloro-N-{4-methyl-3-[6-(pyridin-3-yl)-1H-imidazo[1,2-b]pyrazol-1-yl]phenyl}-3-(piperidin-1-yl)benzamide]	330
Cc1ccc(NC(=O)c2cccc(N(C)C)c2)cc1-n1ccn2nc(-c3cccnc3)cc12 [Example 59, 3-(Dimethylamino)-N-{4-methyl-3-[6-(pyridin-3-yl)-1H-imidazo[1,2-b]pyrazol-1-yl]phenyl}-benzamide]	600
Cc1ccc(NC(=O)c2cccc(OC(C)C)c2)cc1-n1ccn2nc(-c3cccnc3)cc12 [Example 60, N-{4-Methyl-3-[6-(pyridin-3-yl)-1H-imidazo[1,2-b]pyrazol-1-yl]phenyl}-3-(propan-2-yloxy)-benzamide]	125
CCCOc1cccc(C(=O)Nc2ccc(C)c(-n3ccn4nc(-c5cccnc5)cc34)c2)c1 [Example 61, N-{4-Methyl-3-[6-(pyridin-3-yl)-1H-imidazo[1,2-b]pyrazol-1-yl]phenyl}-3-propoxybenzamide]	260
Cc1ccc(NC(=O)c2cccc(OCC(C)C)c2)cc1-n1ccn2nc(-c3cccnc3)cc12 [Example 62, 3-(2-Methylpropoxy)-N-{4-methyl-3-[6-(pyridin-3-yl)-1H-imidazo[1,2-b]pyrazol-1-yl]phenyl}-benzamide]	500
COc1cc(OC)cc(C(=O)Nc2ccc(C)c(-n3ccn4nc(-c5cccnc5)cc34)c2)c1 [Example 63, 3,5-Dimethoxy-N-{4-methyl-3-[6-(pyridin-3-yl)-1H-imidazo[1,2-b]pyrazol-1-yl]phenyl}benzamide]	770
Cc1ccc(NC(=O)c2ccnc(C(C)(C)C)c2)cc1-n1ccn2nc(-c3cccnc3)cc12 [Example 64, 2-tert-Butyl-N-{4-methyl-3-[6-(pyridin-3-yl)-1H-imidazo[1,2-b]pyrazol-1-yl]phenyl}isonicotinamide]	41
Cc1ccc(NC(=O)c2cc(Cl)nc(C(C)(C)C)c2)cc1-n1ccn2nc(-c3cccnc3)cc12 [Example 65, 2-tert-Butyl-6-chloro-N-{4-methyl-3-[6-(pyridin-3-yl)-1H-imidazo[1,2-b]pyrazol-1-yl]phenyl}isonicotinamide]	57
Cc1ccc(NC(=O)c2ccnc(N3CCCC3)c2)cc1-n1ccn2nc(-c3cccnc3)cc12 [Example 67, N-{4-Methyl-3-[6-(pyridin-3-yl)-1H-imidazo[1,2-b]pyrazol-1-yl]phenyl}-2-(pyrrolidin-1-yl)-pyridine-4-carboxamide]	57
Cc1ccc(NC(=O)c2ccnc(N3CCCCC3)c2)cc1-n1ccn2nc(-c3cccnc3)cc12 [Example 68, N-{4-Methyl-3-[6-(pyridin-3-yl)-1H-imidazo[1,2-b]pyrazol-1-yl]phenyl}-2-(piperidin-1-yl)-pyridine-4-carboxamide]	71
Cc1ccc(NC(=O)c2ccnc(N3CCOCC3)c2)cc1-n1ccn2nc(-c3cccnc3)cc12 [Example 69, N-{4-Methyl-3-[6-(pyridin-3-yl)-1H-imidazo[1,2-b]pyrazol-1-yl]phenyl}-2-(morpholin-4-yl)-pyridine-4-carboxamide]	580
O=C(Nc1ccc(F)c(-n2ccn3nc(-c4cccnc4)cc23)c1)c1cccc(S(F)(F)(F)(F)F)c1 [Example 70, N-{4-Fluoro-5-[6-(pyridin-3-yl)-1H-imidazo[1,2-b]pyrazol-1-yl]phenyl}-3-(pentafluoro-λ^6-sulphanyl)benzamide]	105
N#Cc1cc(C(=O)Nc2ccc(F)c(-n3ccn4nc(-c5cccnc5)cc34)c2)cc(S(F)(F)(F)(F)F)c1 [Example 71, 3-Cyano-N-{4-fluoro-5-[6-(pyridin-3-yl)-1H-imidazo[1,2-b]pyrazol-1-yl]phenyl}-3-(pentafluoro-λ^6-sulphanyl)benzamide]	34
COc1ccc(NC(=O)c2cccc(S(F)(F)(F)(F)F)c2)cc1-n1ccn2nc(-c3cccnc3)cc12 [Example 72, N-{4-Methoxy-3-[6-(pyridin-3-yl)-1H-imidazo[1,2-b]pyrazol-1-yl]phenyl}-3-(pentafluoro-λ^6-sulphanyl)benzamide]	350
